Data taken from BindingDB's records for doi:10.1016/j.bmcl.2003.09.076 (Eli Lilly, 2003).
pIC50, pKi: −log10 of the molar value.

Experiments:
[1] = Binding affinity towards Protease using PNA assay […]
[2] = Cytotoxic activity in human liver Huh-7 cells
[3] = Inhibitory activity against Protease using replicon assay […] at 50 uM concentration

| Compound | pKi [1] | pIC50 [3] | pIC50 [2] |
| --- | --- | --- | --- |
| CCCC(NC(=O)[C@@H]1[C@H]2CCC[C@H]2CN1C(=O)[C@@H](NC(=O)[C@H](O)C(C)C)C(C)C)C(=O)C(=O)Nc1ccccc1 (stereo partly drawn) [(1S,3aR,6aS)-2-[(S)-2-((R)-2-Hydroxy-3-methyl-butyrylamino)-3-methyl-butyryl]-octahydro-cyclopenta[c]pyrrole-1-carboxylic acid (1-phenylaminooxalyl-butyl)-amide] | 5.74 | < 4.00 | – |
| CCCC(NC(=O)[C@@H]1[C@H]2CCC(F)(F)[C@H]2CN1C(=O)[C@@H](NC(=O)[C@H](O)C(C)C)C(C)C)C(=O)C(=O)NC1CC1 (stereo partly drawn) [(1S,3aR,6aS)-4,4-Difluoro-2-[(S)-2-((R)-2-hydroxy-3-methyl-butyrylamino)-3-methyl-butyryl]-octahydro-cyclopenta[c]pyrrole-1-carboxylic acid (1-cyclopropylaminooxalyl-butyl)-amide] | 4.78 | – | – |
| CCCC(NC(=O)[C@@H]1[C@H]2CCC(F)(F)[C@H]2CN1C(=O)[C@@H](NC(=O)OC(C)C)C(C)(C)C)C(=O)C(=O)N[C@@H](C)c1ccccc1 (stereo partly drawn) [((S)-1-{(1S,3aR,6aS)-4,4-Difluoro-1-[1-((S)-1-phenyl-ethylaminooxalyl)-butylcarbamoyl]-hexahydro-cyclopenta[c]pyrrole-2-carbonyl}-2,2-dimethyl-propyl)-carbamic acid isopropyl ester] | 5.68 | – | < 4.00 |
| CCCC(NC(=O)[C@@H]1[C@H]2CCC[C@H]2CN1C(=O)[C@@H](NC(=O)OC(C)C)C(C)C)C(=O)C(=O)N[C@@H](C)c1ccccc1 (stereo partly drawn) [((S)-2-Methyl-1-{(1S,3aR,6aS)-1-[1-((S)-1-phenyl-ethylaminooxalyl)-butylcarbamoyl]-hexahydro-cyclopenta[c]pyrrole-2-carbonyl}-propyl)-carbamic acid isopropyl ester] | 5.72 | – | < 4.00 |

Further lines, with some results ahead:

| pKi [1] | pIC50 [3] | Compound | pIC50 [2] |
| --- | --- | --- | --- |
| 4.84 | – | CCCC(NC(=O)[C@@H]1[C@H]2CCC[C@H]2CN1C(=O)[C@@H](NC(=O)[C@H](O)C(C)C)C(C)C)C(=O)C(=O)NC1CC1 (stereo partly drawn) [(1S,3aR,6aS)-2-[(S)-2-((R)-2-Hydroxy-3-methyl-butyrylamino)-3-methyl-butyryl]-octahydro-cyclopenta[c]pyrrole-1-carboxylic acid (1-cyclopropylaminooxalyl-butyl)-amide] | < 4.00 |
| 5.17 | – | CCCC(NC(=O)[C@@H]1[C@H]2CCC(F)(F)[C@H]2CN1C(=O)[C@@H](NC(=O)OC(C)C)C(C)C)C(=O)C(=O)N[C@@H](C)c1ccccc1 (stereo partly drawn) [((S)-1-{(1S,3aR,6aS)-4,4-Difluoro-1-[1-((S)-1-phenyl-ethylaminooxalyl)-butylcarbamoyl]-hexahydro-cyclopenta[c]pyrrole-2-carbonyl}-2-methyl-propyl)-carbamic acid isopropyl ester] | < 4.00 |
| 6.09 | – | CCCC(NC(=O)[C@@H]1[C@H]2CCC[C@H]2CN1C(=O)[C@@H](NC(=O)OC(C)C)C(C)(C)C)C(=O)C(=O)Nc1ccccc1 (stereo partly drawn) [{(S)-2,2-Dimethyl-1-[(1S,3aR,6aS)-1-(1-phenylaminooxalyl-butylcarbamoyl)-hexahydro-cyclopenta[c]pyrrole-2-carbonyl]-propyl}-carbamic acid isopropyl ester] | – |
